In patent US11529356B2, “2-(morpholin-4-yl)-1,7-naphthyridines” (Bayer Pharma Aktiengesellschaft, priority 2014, dated 2022):

Tests used:
Caco-2 cells = experiment: Proliferation Assay Caco-2 (crystal violet); assay type: cell-based; conditions: Homo sapiens, Caco-2, Caco-2 cells; read-out: Inhibition of Caco-2 cell proliferation IC50
Method: After 24 hours, the cells of one plate (zero plate) were dyed with crystal violet (see below), whereas the medium of the other plates was replaced with fresh culture medium (200 μl) to which the test substances were added in various concentrations (0 μM, and also in the range of 0.001-10 μM; the final concentration of the solvent dimethyl sulphoxide was 0.1 or 0.5%). The cells were incubated for 4 days in the presence of the test substances. […] After washing the fixed cells three times with water, the plates were dried at room temperature. The cells were stained by adding 100 μl/measurement point of a 0.1% strength crystal violet solution (pH adjusted to pH 3 by adding acetic acid). After washing the cells three times with water, the plates were dried at room temperature. The dye was dissolved by adding 100 μl/measurement point of a 10% strength acetic acid solution. […] The percentage change in cell growth was calculated by normalizing the measured values to the absorbance values of the zero plate (=0%) and the absorbance of the untreated (0 μM) cells (=100%). The IC50 values were determined by means of a four parameter fit.

[1] = target: full-length human ATR protein (Homo sapiens (Human), UniProt Q13535); experiment: Binding Assay ATR (TR-FRET tracer displacement); conditions: tracer A
Chain of full-length human ATR protein (Q13535 other isoform, or with tags, fused parts or gaps): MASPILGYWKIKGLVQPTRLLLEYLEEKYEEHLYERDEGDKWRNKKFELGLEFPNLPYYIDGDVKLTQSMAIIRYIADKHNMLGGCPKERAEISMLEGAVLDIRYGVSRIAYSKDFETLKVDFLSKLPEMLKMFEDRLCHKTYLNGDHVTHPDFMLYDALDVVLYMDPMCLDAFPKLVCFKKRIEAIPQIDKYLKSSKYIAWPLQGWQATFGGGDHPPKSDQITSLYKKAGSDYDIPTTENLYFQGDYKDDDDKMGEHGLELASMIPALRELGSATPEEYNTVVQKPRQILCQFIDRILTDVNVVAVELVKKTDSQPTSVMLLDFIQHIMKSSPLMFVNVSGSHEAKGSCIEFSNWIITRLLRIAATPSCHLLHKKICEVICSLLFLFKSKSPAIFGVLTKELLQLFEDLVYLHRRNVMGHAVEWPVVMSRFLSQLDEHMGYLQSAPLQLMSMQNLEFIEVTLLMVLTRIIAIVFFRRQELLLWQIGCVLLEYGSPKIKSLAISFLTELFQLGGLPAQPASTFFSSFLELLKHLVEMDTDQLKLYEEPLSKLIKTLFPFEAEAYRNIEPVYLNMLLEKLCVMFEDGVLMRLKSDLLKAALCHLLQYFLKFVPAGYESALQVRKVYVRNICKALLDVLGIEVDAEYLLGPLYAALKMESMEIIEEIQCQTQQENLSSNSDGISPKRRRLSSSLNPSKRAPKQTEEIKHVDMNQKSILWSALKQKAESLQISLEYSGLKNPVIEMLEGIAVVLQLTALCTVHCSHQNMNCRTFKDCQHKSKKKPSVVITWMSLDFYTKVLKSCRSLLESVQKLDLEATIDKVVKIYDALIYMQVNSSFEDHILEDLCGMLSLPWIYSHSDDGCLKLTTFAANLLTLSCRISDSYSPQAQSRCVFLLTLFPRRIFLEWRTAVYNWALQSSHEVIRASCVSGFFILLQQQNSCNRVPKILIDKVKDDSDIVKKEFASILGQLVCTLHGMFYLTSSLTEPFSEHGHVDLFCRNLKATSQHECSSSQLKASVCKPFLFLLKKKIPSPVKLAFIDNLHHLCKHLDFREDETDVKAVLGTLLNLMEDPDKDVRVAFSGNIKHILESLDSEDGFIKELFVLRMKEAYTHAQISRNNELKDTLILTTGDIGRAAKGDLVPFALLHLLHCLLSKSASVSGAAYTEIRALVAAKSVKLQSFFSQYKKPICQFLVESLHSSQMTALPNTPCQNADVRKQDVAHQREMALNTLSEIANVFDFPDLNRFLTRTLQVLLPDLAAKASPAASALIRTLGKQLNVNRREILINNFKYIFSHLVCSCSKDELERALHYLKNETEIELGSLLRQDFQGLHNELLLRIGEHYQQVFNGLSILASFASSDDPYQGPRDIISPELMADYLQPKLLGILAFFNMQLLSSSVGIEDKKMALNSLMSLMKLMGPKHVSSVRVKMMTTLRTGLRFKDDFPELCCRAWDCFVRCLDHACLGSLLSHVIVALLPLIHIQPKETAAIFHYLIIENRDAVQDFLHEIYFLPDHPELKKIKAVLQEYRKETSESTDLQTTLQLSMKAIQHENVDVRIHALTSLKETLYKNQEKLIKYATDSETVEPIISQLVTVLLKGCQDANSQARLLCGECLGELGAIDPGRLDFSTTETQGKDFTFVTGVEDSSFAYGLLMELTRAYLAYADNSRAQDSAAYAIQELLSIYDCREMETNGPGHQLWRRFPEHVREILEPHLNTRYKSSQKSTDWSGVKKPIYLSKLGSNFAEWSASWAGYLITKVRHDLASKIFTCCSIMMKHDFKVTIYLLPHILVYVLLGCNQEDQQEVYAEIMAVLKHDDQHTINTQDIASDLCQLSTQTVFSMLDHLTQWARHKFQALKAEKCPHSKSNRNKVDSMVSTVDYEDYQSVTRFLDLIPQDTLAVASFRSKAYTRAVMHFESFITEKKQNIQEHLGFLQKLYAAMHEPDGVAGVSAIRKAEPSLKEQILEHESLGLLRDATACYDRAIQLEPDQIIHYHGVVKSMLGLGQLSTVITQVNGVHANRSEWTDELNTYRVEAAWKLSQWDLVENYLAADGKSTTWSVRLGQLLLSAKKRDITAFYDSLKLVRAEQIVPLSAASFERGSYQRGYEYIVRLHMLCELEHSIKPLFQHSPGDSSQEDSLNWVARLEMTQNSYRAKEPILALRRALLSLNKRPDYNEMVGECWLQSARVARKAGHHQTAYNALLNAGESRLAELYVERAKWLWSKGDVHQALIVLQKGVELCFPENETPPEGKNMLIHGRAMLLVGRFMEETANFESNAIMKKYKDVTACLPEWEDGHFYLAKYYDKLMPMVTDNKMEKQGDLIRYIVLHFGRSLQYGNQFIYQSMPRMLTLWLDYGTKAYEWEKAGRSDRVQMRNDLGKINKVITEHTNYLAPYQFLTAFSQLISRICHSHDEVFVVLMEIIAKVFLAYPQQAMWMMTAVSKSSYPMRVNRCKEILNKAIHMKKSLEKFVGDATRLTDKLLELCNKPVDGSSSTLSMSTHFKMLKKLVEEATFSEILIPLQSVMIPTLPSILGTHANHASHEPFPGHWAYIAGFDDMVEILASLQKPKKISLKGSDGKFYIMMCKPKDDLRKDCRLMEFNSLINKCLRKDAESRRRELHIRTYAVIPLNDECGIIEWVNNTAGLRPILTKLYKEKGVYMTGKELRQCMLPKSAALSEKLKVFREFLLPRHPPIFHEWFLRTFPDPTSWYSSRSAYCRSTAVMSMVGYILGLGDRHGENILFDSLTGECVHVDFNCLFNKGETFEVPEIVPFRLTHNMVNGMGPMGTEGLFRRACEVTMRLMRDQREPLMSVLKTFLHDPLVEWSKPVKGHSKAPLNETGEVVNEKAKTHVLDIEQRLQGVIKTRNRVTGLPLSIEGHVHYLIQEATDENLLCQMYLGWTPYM
Chain of full-length human ATR protein (Q8WXE1 other isoform, or with tags, fused parts or gaps partner): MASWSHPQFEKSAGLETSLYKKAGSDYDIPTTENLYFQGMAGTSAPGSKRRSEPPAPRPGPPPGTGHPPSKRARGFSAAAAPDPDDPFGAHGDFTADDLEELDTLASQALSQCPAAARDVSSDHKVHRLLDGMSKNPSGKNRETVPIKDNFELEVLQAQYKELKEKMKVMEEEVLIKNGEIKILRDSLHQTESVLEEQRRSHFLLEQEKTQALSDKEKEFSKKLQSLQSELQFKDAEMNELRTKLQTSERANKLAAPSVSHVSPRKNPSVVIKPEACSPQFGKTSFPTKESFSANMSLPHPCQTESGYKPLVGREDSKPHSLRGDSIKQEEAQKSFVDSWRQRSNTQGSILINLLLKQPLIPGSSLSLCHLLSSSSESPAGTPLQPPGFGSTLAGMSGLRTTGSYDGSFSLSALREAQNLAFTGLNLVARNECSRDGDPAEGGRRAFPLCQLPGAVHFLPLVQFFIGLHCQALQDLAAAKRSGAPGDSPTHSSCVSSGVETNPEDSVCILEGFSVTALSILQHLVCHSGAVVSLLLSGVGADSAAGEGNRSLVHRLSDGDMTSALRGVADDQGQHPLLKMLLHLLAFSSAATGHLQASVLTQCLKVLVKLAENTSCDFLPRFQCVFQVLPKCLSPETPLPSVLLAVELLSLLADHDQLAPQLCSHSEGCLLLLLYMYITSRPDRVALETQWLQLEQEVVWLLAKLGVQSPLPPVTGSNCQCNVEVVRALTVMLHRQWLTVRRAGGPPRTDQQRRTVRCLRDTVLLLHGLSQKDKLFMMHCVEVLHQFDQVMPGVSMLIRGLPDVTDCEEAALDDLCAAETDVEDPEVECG
From the text: To determine of binding activity of the test compounds, full-length human ATR protein was expressed and purified together with ATRIP as described above. Furthermore, a fluorescently labelled compound (either tracer A or B as described above) was used as a tracer molecule. Detection of the binding event of the tracer was achieved by time-resolved fluorescence energy transfer (TR-FRET). We used an anti-GST-Terbium antibody (CisBio) that binds to the GST-tag at the N-terminus of ATR-kinase. […] Displacement of the fluorescent tracer by a test compound leads to a reduction of the TR-FRET-signal.
For the assay 50 nl of a 100-fold concentrated solution of the test compound in DMSO was pipetted into a black low volume 384 well microtiter plate (MTP, Greiner Bio-One, Frickenhausen, Germany). […] The ATR-working solution was incubated for 30 min at 22° C. prior to dispensing to pre-form the complex of antiGST-Tb+GST-ATR+ATRIP. Then, 3 μl of the ATR-working solution were added to the test compound and the mixture was incubated for 10 min at 22° C. to allow pre-binding of the test compounds to ATR/ATRIP. Then, 2 μl of a 100 nM solution of either tracer A or B in assay buffer were added to the ATR-working solution. The resulting mixture was incubated for 30 min at 22° C. […] IC50 values were calculated by a 4 parameter fit using standard software (GraphPad prism or equivalent).

Row | SMILES | IC50 (Caco-2 cells) | IC50 [1]
1 | Clc1cc(N2CCOCC2)nc2c(-c3cc[nH]n3)nccc12 [Example 62, 4-chloro-2-morpholin-4-yl-8-(1H-pyrazol-3-yl)-[1,7]naphthyridine] | > 3000 nM | –
2 | c1cc(-c2nccc3c(N4C[C@@H]5C[C@H]4CO5)cc(N4CCOCC4)nc23)[nH]n1 [Example 185, 2-(morpholin-4-yl)-4-[(1S,4S)-2-oxa-5-azabicyclo[2.2.1]hept-5-yl]-8-(1H-pyrazol-5-yl)-1,7-naphthyridine] | – | 852 nM
